Measurements as given in patent US12065471B2, “B*44 restricted peptides for use in immunotherapy against cancers and related methods” (Immatics Biotechnologies GmbH, priority 2018, dated 2024).

Columns and labels:
CD8+ T cells = assay: In vitro immunogenicity: T-cell priming with aAPCs loaded with peptide/MHC and anti-CD28, pMHC multimer readout; type: cell-based, human; details: Table 10b, pMHC multimer readout after T-cell priming
HLA-B*44:05 = HLA-B*44:05 (Homo sapiens, UniProt P01889, A223V/A65T/A93T/A95T/D201E/D98Y/E176V/E187L/E204Q/E69K/G107R/H137Y/K202T/L105A/L119I/N104T/N87E/Q56L/Q94N/R106L/R155S/R180D/S101N/S121R/S35A/S48T/T118I/V36M/W191S/Y91S); assay: MHC binding assay (UV-ligand exchange, β2m ELISA, peptide exchange yield); details: binding to HLA-B*44:05
Summary of the method: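 Binding is read as exchange yield, i.e. stabilized complex remaining after UV cleavage of a photolabile ligand in the presence of the candidate peptide. Streptavidin-captured monomers (100-fold dilution) are probed with HRP-anti-β2m, 1h at 37° C, TMB, A450. Standard curve: HLA-A*02:01/MLA-001 monomers at 15-500 ng/ml.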

Substance	Wells positive [%] (CD8+ T cells)	Peptide exchange (MHC class I binding score, peptide exchange yield) (HLA-B*44:05)
7 (SESDLVNFI; listed as Homo sapiens) [compound 7]	+ (<20% = +)	+++ (>50 = +++)
80 (TEQSLYYRQW; listed as Homo sapiens) [compound 80]	++++ (>=70% = ++++)	+++ (>50 = +++)
13 (VEAQDRETW; listed as Homo sapiens) [compound 13]	++ (20%-49% = ++)	++ (>20% = ++)
